Data reported in ChEMBL document CHEMBL1201862, “PubChem BioAssay data set” (2004).
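In this assay, cells in 96-well plates receive the compound at five concentrations for 48 hours. Endpoints are linearly interpolated between the surrounding concentrations. GI50 = concentration required for 50% inhibition of growth.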 The source made the active and inactive calls. Rule as the data show it: active = GI50 up to about 1.1 µM and inactive = higher.

What was measured:
Experiment in all cases: growth of human tumour cells (NCI), 48 h
[1] = system: SF-295
[2] = system: M14
[3] = system: KM-20L2
[4] = system: A549
[5] = system: KM12
[6] = system: HCT-15
[7] = system: Malme-3M
[8] = system: PC-3
[9] = system: HOP-62
[10] = system: DU-145
[11] = system: UACC-257
[12] = system: SNB-19
[13] = system: RPMI-8226
[14] = system: CCRF-CEM
[15] = system: SF-539
[16] = system: UO-31
[17] = system: MDA-N
[18] = system: NCI-H522
[19] = system: TK-10
[20] = system: MOLT-4
[21] = system: EKVX
[22] = system: LXFL 529
[23] = system: HCC 2998
[24] = system: HCT-116
[25] = system: SNB-75
[26] = system: MDA-MB-435
[27] = system: U-251
[28] = system: ACHN
[29] = system: HL-60
[30] = system: MCF7
[31] = system: K562
[32] = system: SF-268
[33] = system: OVCAR-3
[34] = system: SW-620
[35] = system: A498
[36] = system: SK-MEL-5
[37] = system: SR
[38] = system: HOP-92
[39] = system: 786-0
[40] = system: SK-MEL-28
[41] = system: NCI-H226
[42] = system: BT-549
[43] = system: NCI-H23
[44] = system: MDA-MB-231
[45] = system: DMS-114
[46] = system: T47D
[47] = system: HOP-18
[48] = system: RXF 393
[49] = system: LOX IMVI
[50] = system: NCI/ADR-RES
[51] = system: DMS-273
[52] = system: COLO 205
[53] = system: NCI-H460
[54] = system: OVCAR-5
[55] = system: SN12C
[56] = system: XF498
[57] = system: SK-OV-3
[58] = system: SK-MEL-2
[59] = system: CAKI-1
[60] = system: OVCAR-4
[61] = system: UACC-62
[62] = system: OVCAR-8
[63] = system: HT-29
[64] = system: IGROV-1
[65] = system: M19-MEL
[66] = system: Hs-578T
[67] = system: DLD-1
[68] = system: SNB-78
[69] = system: RXF 631

## Cc1c(/N=C\c2ccc(N(CCC#N)CCC#N)cc2)c(=O)n(-c2ccccc2)n1C
[1]
  GI50: 25.7 µM (inactive)
[2]
  GI50: 92.7 µM (inactive)
[3]
  GI50: > 100 µM (inactive)
[4]
  GI50: 82.6 µM (inactive)
[5]
  GI50: > 100 µM (inactive)
[6]
  GI50: > 100 µM
[7]
  GI50: > 100 µM (inactive)
[8]
  GI50: > 100 µM (inactive)
[9]
  GI50: 31.5 µM (inactive)
[10]
  GI50: > 100 µM (inactive)
[11]
  GI50: > 100 µM (inactive)
[12]
  GI50: 41.8 µM (inactive)
[13]
  GI50: > 100 µM (inactive)
[14]
  GI50: > 100 µM (inactive)
[15]
  GI50: 31.6 µM (inactive)
[16]
  GI50: > 100 µM (inactive)
[17]
  GI50: > 100 µM (inactive)
[18]
  GI50: > 100 µM (inactive)
[19]
  GI50: 24.1 µM (inactive)
[20]
  GI50: > 100 µM (inactive)
[21]
  GI50: > 93.5 µM (inactive)
[22]
  GI50: > 100 µM (inactive)
[23]
  GI50: > 100 µM (inactive)
[24]
  GI50: > 100 µM (inactive)
[25]
  GI50: 20.7 µM (inactive)
[26]
  GI50: > 100 µM (inactive)
[27]
  GI50: 39.2 µM (inactive)
[28]
  GI50: 22.5 µM (inactive)
[29]
  GI50: > 100 µM (inactive)
[30]
  GI50: > 63.7 µM (inactive)
[31]
  GI50: > 100 µM (inactive)
[32]
  GI50: 64.6 µM (inactive)
[33]
  GI50: > 90.6 µM (inactive)
[34]
  GI50: > 100 µM (inactive)
[35]
  GI50: 69.2 µM (inactive)
[36]
  GI50: > 100 µM (inactive)
[37]
  GI50: > 100 µM (inactive)
[38]
  GI50: 45.7 µM (inactive)
[39]
  GI50: 24.4 µM (inactive)
[40]
  GI50: > 100 µM (inactive)
[41]
  GI50: > 100 µM (inactive)
[42]
  GI50: > 100 µM (inactive)
[43]
  GI50: > 100 µM (inactive)
[44]
  GI50: 77.4 µM (inactive)
[45]
  GI50: > 100 µM (inactive)
[46]
  GI50: > 100 µM (inactive)
[47]
  GI50: 25.2 µM (inactive)
[48]
  GI50: 24 µM (inactive)
[49]
  GI50: > 100 µM (inactive)
[50]
  GI50: > 100 µM (inactive)
[51]
  GI50: > 88.5 µM (inactive)
[52]
  GI50: > 100 µM (inactive)
[53]
  GI50: > 100 µM (inactive)
[54]
  GI50: > 100 µM (inactive)
[55]
  GI50: > 93.5 µM (inactive)
[56]
  GI50: 28 µM (inactive)
[57]
  GI50: > 100 µM (inactive)
[58]
  GI50: > 96.6 µM (inactive)
[59]
  GI50: > 100 µM (inactive)
[60]
  GI50: > 100 µM (inactive)
[61]
  GI50: > 100 µM (inactive)
[62]
  GI50: > 100 µM (inactive)
[63]
  GI50: > 100 µM (inactive)
[64]
  GI50: > 93.5 µM (inactive)
[65]
  GI50: > 100 µM (inactive)
[66]
  GI50: 38 µM (inactive)
[67]
  GI50: > 100 µM (inactive)
[68]
  GI50: 51.6 µM (inactive)

## CC1(C)OC2C(CCP(=O)(O)O)OC(c3nc(C(N)=O)cs3)C2O1 (stereo not drawn)
[2]
  GI50: > 100 µM (inactive)
[3]
  GI50: > 100 µM (inactive)
[4]
  GI50: > 100 µM (inactive)
[5]
  GI50: > 100 µM (inactive)
[6]
  GI50: > 100 µM
[7]
  GI50: > 100 µM (inactive)
[69]
  GI50: > 100 µM (inactive)
[11]
  GI50: > 100 µM (inactive)
[12]
  GI50: > 100 µM (inactive)
[13]
  GI50: > 100 µM (inactive)
[14]
  GI50: > 100 µM (inactive)
[16]
  GI50: > 100 µM (inactive)
[18]
  GI50: > 100 µM (inactive)
[19]
  GI50: > 100 µM (inactive)
[20]
  GI50: > 100 µM (inactive)
[21]
  GI50: > 100 µM (inactive)
[22]
  GI50: > 100 µM (inactive)
[23]
  GI50: > 100 µM (inactive)
[24]
  GI50: > 100 µM (inactive)
[25]
  GI50: > 100 µM (inactive)
[27]
  GI50: > 100 µM (inactive)
[28]
  GI50: > 100 µM (inactive)
[31]
  GI50: > 100 µM (inactive)
[32]
  GI50: > 100 µM (inactive)
[34]
  GI50: > 100 µM (inactive)
[35]
  GI50: > 100 µM (inactive)
[38]
  GI50: > 100 µM (inactive)
[39]
  GI50: > 100 µM (inactive)
[40]
  GI50: > 100 µM (inactive)
[41]
  GI50: > 100 µM (inactive)
[43]
  GI50: > 100 µM (inactive)
[45]
  GI50: > 100 µM (inactive)
[47]
  GI50: > 100 µM (inactive)
[48]
  GI50: > 100 µM (inactive)
[49]
  GI50: > 100 µM (inactive)
[51]
  GI50: > 100 µM (inactive)
[52]
  GI50: > 100 µM (inactive)
[53]
  GI50: > 100 µM (inactive)
[54]
  GI50: > 100 µM (inactive)
[55]
  GI50: > 100 µM (inactive)
[57]
  GI50: > 100 µM (inactive)
[58]
  GI50: > 100 µM (inactive)
[59]
  GI50: > 100 µM (inactive)
[60]
  GI50: > 100 µM (inactive)
[61]
  GI50: > 100 µM (inactive)
[62]
  GI50: > 100 µM (inactive)
[63]
  GI50: > 100 µM (inactive)
[64]
  GI50: > 100 µM (inactive)
[65]
  GI50: > 100 µM (inactive)
[67]
  GI50: > 100 µM (inactive)
